Counter-ions that a name gives are not always drawn. Like-named read-outs stand apart in the source and are kept apart here. One block for each compound: values may come before it.
Experiments:
[1] = test system: NRF2-ARE pathway in C6 cells; assay: ARE reporter assay in C6 astrocyte cell line; format: cell-based, rat
Text: NRF2-ARE Inducing activity of the best hit compounds in neuronal and astrocytic cell lines was investigated. In order to determine whether the differences in protection in astrocytic and motor neuronal cell lines was due to differences in the degree of activation of the NRF2-ARE pathway in these cell types, the NRF2-ARE reporter construct was stably expressed in both the astrocytic (C6) and motor neuronal (NSC34) cell lines. The 17 best hit molecules were then screened in each cell line. We also screened the S [+] enantiomer of apomorphine as it can exist as either an R[−] or S[+] enantiomer. The […] enantiomer has dopamine agonist activity whereas the S[+] enantiomer has lost this activity and so we wanted to determine whether it retains NRF2-ARE inducing activity. In general activation of the NRF2-ARE pathway in the C6 cells was similar to that seen in the CHO cell line. […].

[2] = test system: Haem oxygenase 1 and NQO1 gene expression in C6 cells; assay: Multiplex/quantitative RT-PCR for NRF2 regulated genes in C6 cells; format: cell-based, rat
Description: (§1) Quantitative RT-PCR. (Q-PCR) was performed using 25 ng of cDNA, 1× SYBR Green PCR Master Mix (Stratagene) and optimised concentrations of forward and reverse primers (Table 1), in a total volume of 20 μl and in triplicate for each sample. Following denaturation at 95° C. for 10 min, products were amplified by 40 cycles of 95° C. for 15 s and 60° C. for 1 min, on an MX3000P Real Time PCR System (Stratagene). To ensure amplification of a single product the dissociation curve was produced for each amplification. The relative levels of the genes of interest in the samples was determined by normalizing the level of expression to that of gapdh in each of the samples and by using the ddCt calculation (SYBR Green PCR mix and RT-PCR protocol, Applied Biosystems). Overall relative concentrations of the genes of interest were calculated following drug treatment by normalising the data to the cells grown in the vehicle (DMSO).

[3] = test system: motor neurones (MN) in primary mouse astrocyte/MN co-cultures; assay: Menadione stress in primary mouse astrocyte/motor neurone co-cultures; format: cell-based
Description: Mouse glial cultures were established from C57BI/6 cortices from 1-2 day old pups. Cortices were dissected out and cells dissociated by trituration following incubation in DNasel, collagenase and trypsin. The incubation and trituration steps were repeated to ensure complete dissociation of cells. Cells were plated at 45,000 cells/cm^2 in DMEM containing 10% FBS, 100 U/ml penicillin, and 100 μg/ml streptomycin. After 24 hours, cultures were washed in PBS and grown for 2-3 weeks until confluent, changing the medium once a week. Confluent glial cultures were enriched for astrocytes by shaking and mild trypsinisation. Enriched astrocytes were grown to confluency and plated onto coverslips coated with poly-D-ornithine (1.5 mg/ml; Sigma, Poole, UK) at 40,000 cells/cm^2, and grown for 1 week. […]
When co-cultures were established for 2 weeks, neuroprotection assays were performed by 24 hrs exposure to drug or vehicle followed by a 6 hour 10 micromolar menadione oxidative stress or glutamate. […] Total MNs were counted by fluorescent microscopy in a 1.5 cm^2 area per coverslip. […] Both vehicle and drug treatments were counted before and after stress treatment, and results were statistically analysed by 2 way anova using Bonferroni post tests.
The co-cultures were then challenged for 6 hours with 10 μM menadione to induce oxidative stress and motor neurones stained and counted. […]

[4] = test system: NQO1 and HO1 transcripts in primary mouse astrocytes from G93A mutant SOD1 transgenic mice; assay: Quantitative RT-PCR of NQO1 and HOX1 in G93A mutant SOD1 primary mouse astrocytes; format: cell-based
Description: as §1

[5] = test system: HO-1 and NQO-1 transcripts; assay: In vivo pharmacodynamics, QRT-PCR for HO-1 and NQO-1 in mice; details: mouse
[6] = mouse, in vivo, iv
[7] = test system: NRF2-ARE pathway in the CHO 4× ARE-TK cell line; assay: ARE reporter assay in CHO 4×ARE-TK-GFP cell line (GFP induction, EthD1 toxicity); details: for maximal fold induction: read-out: Average fold GFP induction at maximal response
Description: Chinese Hamster Ovary (CHO), NSC34 mouse motor neuronal cells, C6 (rat) and 1321N1 (human) astrocytic lines were routinely maintained in DMEM supplemented with 10% FBS and penicillin/streptomycin. […] These plasmids were transfected into CHO, C6 and 1321N1 cell lines using Lipofectamine 2000 (Invitrogen) and following 10-14 days of selection in 0.5 mg/ml G418 they were expanded and selected for basal eGFP expression using fluorescence activated cell sorting (BD, FACSAria) with two sequential cell sorts for each cell line. These mixed populations of stable transfectants with basal eGFP expression were used in subsequent assays and designated 4×ARE-TK-GFP for the ARE containing line and TK-GFP for the control cell line. […]
Confluent cultures of 4×ARE-TK-GFP CHO or TK-GFP CHO expressing cells in 96 or 384-well tissue-culture plates were treated with drug (0.01-100 µM in triplicate) or vehicle (0.1-1% DMSO) in FCS-free DMEM in triplicate for 24 hours. The media was removed and replaced with the same volume of PBS containing 0.3 μM EthD1. […] Non-linear regression was used to fit a sigmoidal dose-response curve on a semi-Log plot to calculate the EC50 using GraphPad Prism (GraphPad Software). The reporter assay was conducted in a similar fashion in C6 and 1321N1 astrocyte cell lines stably transfected with the 4×ARE-TK-GFP and TK-GFP constructs except that Eth D1 was added directly in the media and read prior to washing the cells once and reading the […] signal. […]
The compounds were applied in triplicate to confluent cells in 96 well plates in serum free medium for 24 hours and the induction of GFP measured in a fluorescence plate reader. […]

[8] = test system: NSC34 mouse motor neuronal cells
Description: (§2) A simple oxidative stress assay was used to determine whether preconditioning with NRF2-ARE inducing drugs could protect against a subsequent oxidative stress insult (serum withdrawal). The NSC34, C6 and 1321N1 cells were plated in 96 well tissue culture plates to achieve 30% confluency. […] Media was then replaced with serum free, phenol free media for 5 hrs. […] Cell survival assay was then performed on the cells as protection is measured as % reduction in DCF signal, therefore data points were excluded where a decrease in cell number was measured.
(§3) Briefly methylthiazolyldiphenyl-tetrazolium bromide (MTT) was added to the cells and a blank well to a final concentration 0.5 mg/ml and incubated at 37° C. for 1-3 hrs depending on the cell line used.

[9] = test system: 1321N1 (human) astrocytic line
Description: as §2, §3

C6 (rat) astrocytic line [10] = test system: C6 (rat) astrocytic line
Description: as §2, §3

C6 (rat) astrocytic line [11] = assay: C6 oxidative stress assay (serum withdrawal, DCF); details: for IC50: C6, 24 h pre-treatment, serum withdrawal, DCF; for Lowest dose with toxicity: C6; for Maximal % reduction in Oxidative stress: C6, DCF fluorescence
Description: as §2, §3

[12] = test system: 1321N1 (human) astrocytic line; assay: 1321N1 oxidative stress assay (serum withdrawal, DCF); details: for IC50: 1321N1, 24 h pre-treatment, serum withdrawal, DCF; for Lowest dose with toxicity: 1321N1; for Maximal % reduction in Oxidative stress: 1321N1, DCF fluorescence
Description: as §2, §3

[13] = test system: motor neuronal cell line expressing mutant (G93A) human SOD1; details: prior art; cited from earlier work
G93A mouse model of ALS = details: higher doses, once a day, orally from 60 days of age; prior art; cited from earlier work
[14] = test system: NSC34 mouse motor neuronal cells; assay: NSC34 oxidative stress assay (serum withdrawal, DCF); details: for Lowest dose with toxicity: NSC34; for Maximal % reduction in Oxidative stress: NSC34, DCF fluorescence, negative = pro-oxidant
Description: as §2, §3

[15] = Cricetulus griseus, 24 h, read-out: Average EC50
[16] = Cricetulus griseus, 24 h, read-out: Average EC50, CHO 4×ARE-TK-GFP, GFP induction, 24 h
[17] = read-out: Average EC50, CHO 4×ARE-TK-GFP, GFP induction, 24 h

SMILES: CN1CCc2cccc3c2[C@H]1Cc1ccc(O)c(O)c1-3.Cl (single isomer, unassigned) [S[+] apomorphine, S [+] apomorphine]
NRF2-ARE activation in C6 reporter cell line [1]: equally potent
Haem oxygenase 1 and NQO1 gene expression [2]: statistically significant changes in gene expression
reduction in motor neurone number after menadione [3]: not seen
transcripts for NQO1 and HO1 [4]: significant increase
induction of HO-1 and NQO-1 transcripts [5]: significant induction
levels of the compound in plasma, brain and cerebral spinal fluid [6]: detected

SMILES: CC(C)N(C(=O)CCl)c1ccccc1 [Propachlor]
Lowest dose with toxicity ([7]; Chinese hamster, 24 h): 100 µM
EC50 [7, 15]: 1490 nM
maximal fold induction ([7]; Cricetulus griseus, 24 h): 3.25
Lowest dose with toxicity ([8]; mouse, 24 h): 10 µM
Lowest dose with toxicity ([9]; human, 24 h): 10 µM
Lowest dose with toxicity (C6 (rat) astrocytic line [10]; rat, 24 h): 10 µM
IC50 (C6 (rat) astrocytic line [11]): 645 nM
IC50 [12]: 829 nM

SMILES: CC(=O)OC1CC[C@@]2(C)C(CC[C@H]3[C@@H]4CC=C(C(C)=O)[C@@]4(C)C(=O)C[C@@H]32)C1 (stereo partly drawn) [3 acetoxypregn-16-en-12,20-dione]
Lowest dose with toxicity ([7]; Chinese hamster, 24 h): 30 µM
maximal fold induction ([7]; Cricetulus griseus, 24 h): 3.14
Lowest dose with toxicity [8]: none
Lowest dose with toxicity [9]: none
Lowest dose with toxicity (C6 (rat) astrocytic line [10]): none
IC50 [12]: ~12400 nM

SMILES: O=C(O[C@@H]1Cc2c(O)cc(O)cc2O[C@@H]1c1cc(O)c(O)c(O)c1)c1cc(O)c(O)c(O)c1 [EGCG, catechin-(−) epigallocatechin-3-gallate, reference compound]
fluorescence in the control TK-GFP cell line ([7]; control TK-GFP CHO cell line): No increase in fluorescence
concentration of peak ARE activation (GFP expression) ([7]; narrow window, 24 h, serum free medium): 100 µM
concentration giving partial protection from H2O2 induced cell death [13]: greater than 20 μM
survival (G93A mouse model of ALS): significant extension in survival

IC50 (C6 (rat) astrocytic line [11]): 192 nM
IC50 [12]: 501 nM
SMILES: C=C1CC[C@@H]2[C@](C)(CO)[C@H](O)CC[C@@]2(C)[C@@H]1C/C=C1/C(=O)OC[C@H]1O [Andrographolide]
Lowest dose with toxicity ([7]; Chinese hamster, 24 h): 100 µM
EC50 [7, 16]: 740 nM
maximal fold induction ([7]; Cricetulus griseus, 24 h): 3.61
EC50 ([7]; Cricetulus griseus, CHO ARE reporter): 740 nM
Haem oxygenase 1 and NQO1 gene expression ([2]; C6 cells, 24 h, EC50 and EC90 concentrations): statistically significant changes in gene expression
reduction in motor neurone number after menadione ([3]; 24 h pre-treatment, 6 hours 10 μM menadione, DMSO control approximately 25% reduction): not seen
transcripts for NQO1 and HO1 ([4]; G93A mutant SOD1 astrocytes, 24 hour pre-treatment, EC90 concentrations): significant increase
Lowest dose with toxicity (C6 (rat) astrocytic line [11]): 10 µM
Lowest dose with toxicity [14]: 10 µM
Lowest dose with toxicity [12]: 10 µM

SMILES: C[C@@H]1C(=O)O[C@H]2[C@H]1CC[C@@]1(C)C=CC(=O)[C@@]3(C)O[C@@]213 [epoxy(4,5α)-4,5-dihydrosantonin]
Average fold GFP induction at maximal response ([7]; CHO 4×ARE-TK-GFP, 24 h): 2.91 fold
Lowest dose with toxicity ([7]; CHO ARE reporter assay): 100 µM
EC50 [7, 17]: 18200 nM
Lowest dose with toxicity [8]: 3 µM
Lowest dose with toxicity [9]: none
Lowest dose with toxicity (C6 (rat) astrocytic line [10]): none
IC50 (C6 (rat) astrocytic line [11]): 2130 nM
Maximal % reduction in Oxidative stress (C6 (rat) astrocytic line [11]): 62%
Maximal % reduction in Oxidative stress [14]: 0%
IC50 [12]: 662 nM
Maximal % reduction in Oxidative stress [12]: 63%

SMILES: Cc1[nH]c2ccccc2c1CN(C)C [2 methyl gramine]
Average fold GFP induction at maximal response ([7]; CHO 4×ARE-TK-GFP, 24 h): 2.27 fold
Lowest dose with toxicity ([7]; CHO ARE reporter assay): 100 µM
EC50 [7, 17]: 3000 nM
Lowest dose with toxicity (C6 (rat) astrocytic line [11]): none
IC50 (C6 (rat) astrocytic line [11]): 32000 nM
Maximal % reduction in Oxidative stress (C6 (rat) astrocytic line [11]): 36%
Lowest dose with toxicity [14]: 3 µM
Maximal % reduction in Oxidative stress [14]: −30%
Lowest dose with toxicity [12]: none
IC50 [12]: 11000 nM
Maximal % reduction in Oxidative stress [12]: 36%

SMILES: C=C(C)C(=O)C(=CC(=O)O)OC [penicillic acid]
Lowest dose with toxicity ([7]; CHO ARE reporter assay): 100 µM
EC50 [7, 15]: 14900 nM
maximal fold induction ([7]; Cricetulus griseus, 24 h): 2.64
Lowest dose with toxicity (C6 (rat) astrocytic line [11]): none
IC50 (C6 (rat) astrocytic line [11]): 4620 nM
Lowest dose with toxicity [14]: none
Lowest dose with toxicity [12]: none

SMILES: CC(COc1ccccc1)NC(C)C(O)c1ccc(O)cc1 (stereo not drawn) [Isoxsuprine hydrochloride, reference compound]
Lowest dose with toxicity ([7]; Chinese hamster, 24 h): 100 µM
EC50 [7, 16]: 8700 nM
maximal fold induction ([7]; Cricetulus griseus, 24 h): 1.52
Lowest dose with toxicity (C6 (rat) astrocytic line [11]): none
IC50 (C6 (rat) astrocytic line [11]): 23000 nM
Lowest dose with toxicity [14]: none
Lowest dose with toxicity [12]: none

— patent US20110251230A1, “THERAPEUTICS FOR NEUROLOGICAL DISORDERS” (UNIVERSITY OF SHEFFIELD, priority 2008, published 2011)
